Measured values from patent US20210322324A1, “METHOD FOR TREATING PRIMARY SCLEROSING CHOLANGITIS” (AVOLYNT, priority 2018, published 2021).
“Also recorded” adds a separate entry of the source.

How the values were obtained:
TIA mice = test: TIA mouse model of primary sclerosing cholangitis, liver histology after remogliflozin etabonate-formulated diet; type: in vivo
Text: The following Examples describe the utilization of a murine model of […] (“PSC”) to assess the effectiveness of a treatment regimen based on the oral administration of remogliflozin etabonate. The murine PSC model is based on mice that are deficient for the expression of tumor necrosis factor alpha (“TNFα”), interleukin 10 (“IL-10”), and activation-induced cytidine deaminase (“AICDA”). As the mice are deficient in TNF, IL-10, and AICDA, they are referred to, herein, as “TIA” mice.
Moreover, as AICDA is required for immunoglobulin (“Ig”) class switching, TIA mice lack IgG and IgA, a phenotype analogous to humans with hyper-IgM syndrome. Therefore, with the combination of AICDA deficiency with the risk factors associated with TNFα and IL-10 deficiencies, TIA mice also develop liver and biliary inflammation reminiscent of PSC symptoms in humans. Accordingly, the TIA model is useful for investigating mechanisms that act early in PSC pathogenesis, as well as treatments that can prevent progression to PSC.
Example 1. Orally-administered remogliflozin etabonate reduces inflammatory cell infiltration, bile ductular proliferation, and interface hepatitis in TIA mice. TIA mice were created by first breeding TNFα knock out (“KO”) C57BL/6 mice, (strain B6.129S-Tnf^tm1Gkl/J, stock #005540, Jackson Laboratories, Bar Harbor, Me.) with IL-10 KO mice (strain B10.129P2(B6)-IL10^tm1Cgn/J, Stock No. 002251, Jackson Laboratories) to produce a population of mice that were deficient in TNFα and IL-10. Because mice with a TNFα−/− and IL10−/− genotype spontaneously develop inflammatory bowel disease (“IBD”) (Hale 2012), a condition associated with poor breeding success (Nagy 2016), the mice needed for further breeding to generate an AICDA population, were generated by breeding offspring with a TNFα and IL10+/− genotype with AICDA−/− mice, which were obtained from Dr. Tasuku Honjo (Muramatsu 2000)), to produce a population of TNFα−/−, IL10−/−, and AICDA+/−(“TI-hetA”) males and females. In turn, TI-hetA pairs were bred to generate populations that were 25% TIA mice, and 50% non-colitis-susceptible TI-hetA littermates that could be used as control populations. All populations were exposed to the same environment from birth. The mice were housed in polycarbonate micro-isolator cages, in individually ventilated racks, under barrier conditions that excluded all known pathogens, including Helicobacter pylori and Norovirus. Mice had ad libitum access to water, and to a standard diet (PicoLab Mouse Diet 20/5058, LabDiet, St. Louis, Mo., USA).
At four (4) weeks of age, TIA (40) and TI-hetA (22) mice were randomized into experimental groups that received either a standard diet (20 TIA and 12 het), or a standard diet formulated 0.03% remogliflozin etabonate (20 TIA and 10 het) (Avolynt Inc., USA). The mice were maintained on this diet for seven (7) weeks. Body weights were obtained three (3) times, weekly, to assess the general health of mice, and to track the development of inflammatory bowel disease (IBD). Glycosuria in the experimental groups was assessed by applying freshly voided urine directly to the glucose test patch on an Accutest® URS-10 urinary reagent test strips (Jant Pharmaceutical Corp., Encino, Calif., USA). Mice were humanely euthanized before reaching the experimental endpoint, of eleven (11) weeks of age, if they lost >15% body weight, or developed rectal prolapse.
To characterize biliary lesions in TIA mice at the end of the 7 week treatment period, liver tissue was obtained from the remogliflozin-treated, and untreated groups, for histologic examination. The excised liver tissue was fixed in Carnoy's fixative solution, and processed into paraffin blocks. The paraffin blocks were sectioned, and stained with Hematoxylin and eosin (H&E) for pathologic analysis. The H&E-stained sections were scored by an American Board of Pathology-certified pathologist. […]

[1] = Plasma remogliflozin after oral compressed IR tablet of remogliflozin etabonate; type: in vivo; settings: 350 mg remogliflozin etabonate, after 3 hrs
Text: Oral dosage forms according to the invention are typically tablets or capsules. Tablets can be obtained by direct compression of the mixed components of a dosage form, including an effective dosage amount of remogliflozin etabonate, and selected excipients, like cellulose derivatives, metacrylates, chitosan, carboxymethylstarch (CMS), or mixtures thereof. For example, a compressed tablet according to the invention, can be prepared by granulating remogliflozin etabonate, microcrystalline cellulose and croscarmellose sodium with a water and povidone solution. The resulting granules are dried, milled, and then blended with mannitol, microcrystalline cellulose, and croscarmellose. The blend is lubricated with magnesium stearate and compressed. […] Indeed, Tmax for an IR remogliflozin etabonate oral dosage form according to the invention occurs at 1 hour, or less, following ingestion of the dosage form by a subject.

[2] = TIA mice, 0.03% in diet for 7 weeks, vs untreated TIA mice, 11 weeks

**Q.** For `CCOC(=O)OC[C@H]1O[C@@H](Oc2nn(C(C)C)c(C)c2Cc2ccc(OC(C)C)cc2)[C@H](O)[C@@H](O)[C@@H]1O` [remogliflozin etabonate, 5-methyl-4-[4-(1-methylethoxy)benzyl]-1-(1-methylethyl)-1H-pyrazol-3-yl 6-O-(ethoxycarbonyl)-β-D-glucopyranoside], which “inflammation at the interface between the hepatic parenchyma and the portal tracts (interface hepatitis)” value (TIA mice; [2]) is on record?
**A.** reduces; also recorded: less inflammation at the interface between the hepatic parenchyma and the portal tracts

**Q.** What about the “proliferation of bile ductules (bile ductular proliferation)” value (TIA mice; [2]) of the same compound?
**A.** reduces; also recorded: less proliferation of bile ductiles

**Q.** And the “proliferation of bile ductules (bile ductular proliferation)” value (TIA mice; TIA mice, 0.03% in diet for 7 weeks, vs untreated TIA mice, 11 weeks, listed as Remo)?
**A.** decrease in proliferation of bile ductules

**Q.** What about the “development and progression of liver and biliary disease” value (TIA mice; TIA mice, 0.03% remogliflozin etabonate in diet for 7 weeks from 4 weeks of age, vs standard diet, H&E liver sections at 11 weeks) of the same compound?
**A.** markedly less development and progression of liver and biliary disease

**Q.** What about the “number of TIA mice that required early euthanasia, Remo group versus control group” value (TIA mice; TIA mice, 7-week study, euthanasia on >15% body weight loss or rectal prolapse) of the same compound?
**A.** no statistical difference

**Q.** And the inflammatory cell infiltration (TIA mice; TIA mice, orally administered in diet)?
**A.** reduces

**Q.** What about the “periportal and biliary inflammation” value (TIA mice; TIA mouse at 11 weeks, 0.03% Remo in chow from 4 weeks of age, H&E liver section) of the same compound?
**A.** decrease in periportal and biliary inflammation

**Q.** And the “remogliflozin plasma concentration after clearance” value [1]?
**A.** 40 ng/mL
